In patent US20060128792A1, “Deguelin as a chemopreventive agent for lung cancer” (priority 2002, published 2006):
Several values for one entry are separate records, joined by “and”; a condition that tells them apart may be missing. Equal values may be shown once.

Key:
Format in all cases: cell-based
[1] = system: H1299; experiment: MTT assay, growth inhibition by deguelin or deguelin derivatives; conditions: 3 days
[2] = system: H596; experiment: as above; conditions: 3 days
[3] = system: H460; experiment: as above; conditions: 3 days
[4] = system: H358; experiment: as above; conditions: 3 days
[5] = system: A549; experiment: as above; conditions: 3 days
[6] = system: H322; experiment: as above; conditions: 3 days
[7] = system: NSCLC cells; experiment: MTT assay, growth inhibition of NSCLC cells by deguelin and deguelin derivatives (Table 2, FIG. 7); conditions: 0.01-1 μM, 3 days

## methoxyrot-2′-enoic acid
[1]; H1299, 0.01 μM
  % control: 0.48%
  MTT assay reading, Average: 0.7507
  MTT assay reading, individual replicate: 0.707 and 0.725 and 0.796 and 0.793 and 0.86 and 0.656 and 0.718
[1]; H1299, 0.1 μM
  % control: 0.29%
  MTT assay reading, Average: 0.4579
  MTT assay reading, individual replicate: 0.401 and 0.474 and 0.434 and 0.387 and 0.526 and 0.465 and 0.518
[1]; H1299, 0.5 μM
  % control: 0.25%
  MTT assay reading, Average: 0.3934
  MTT assay reading, individual replicate: 0.425 and 0.405 and 0.342 and 0.497 and 0.278 and 0.503 and 0.304
[1]; H1299, 1 μM
  % control: 0.22%
  MTT assay reading, Average: 0.3396
  MTT assay reading, individual replicate: 0.29 and 0.384 and 0.395 and 0.301 and 0.289 and 0.346 and 0.372
[2]; H596, 0.01 μM
  % control: 6%
  MTT assay reading, Average: 0.0931
  MTT assay reading, individual replicate: 0.037 and 0.055 and 0.067 and 0.122 and 0.101 and 0.118
[2]; H596, 0.1 μM
  % control: 20%
  MTT assay reading, Average: 0.3181
  MTT assay reading, individual replicate: 0.287 and 0.3 and 0.326 and 0.366 and 0.289 and 0.321 and 0.338
[2]; H596, 0.5 μM
  % control: 23%
  MTT assay reading, Average: 0.3653
  MTT assay reading, individual replicate: 0.28 and 0.434 and 0.344 and 0.446 and 0.348 and 0.383 and 0.322
[2]; H596, 1 μM
  % control: 26%
  MTT assay reading, Average: 0.405
  MTT assay reading, individual replicate: 0.422 and 0.37 and 0.481 and 0.573 and 0.319 and 0.328 and 0.342
[3]; H460, 0.01 μM
  % control: 0.11%
  MTT assay reading, Average: 0.1897
  MTT assay reading, individual replicate: 0.037 and 0.62 and 0.096 and 0.098 and 0.122 and 0.16 and 0.195
[3]; H460, 0.1 μM
  % control: 0.08%
  MTT assay reading, Average: 0.1399
  MTT assay reading, individual replicate: 0.139 and 0.105 and 0.129 and 0.16 and 0.133 and 0.147 and 0.166
[3]; H460, 0.5 μM
  % control: 0.16%
  MTT assay reading, Average: 0.2786
  MTT assay reading, individual replicate: 0.297 and 0.26 and 0.302 and 0.283 and 0.291 and 0.282 and 0.235
[3]; H460, 1 μM
  % control: 0.17%
  MTT assay reading, Average: 0.2933
  MTT assay reading, individual replicate: 0.276 and 0.322 and 0.282 and 0.298 and 0.311 and 0.29 and 0.274
[4]; H358, 0.01 μM
  % control: 69%
  MTT assay reading, Average: 0.5804
  MTT assay reading, individual replicate: 0.414 and 0.525 and 0.579 and 0.603 and 0.68 and 0.612 and 0.65
[4]; H358, 0.1 μM
  % control: 29%
  MTT assay reading, Average: 0.2433
  MTT assay reading, individual replicate: 0.196 and 0.173 and 0.287 and 0.284 and 0.293 and 0.247 and 0.223
[4]; H358, 0.5 μM
  % control: 34%
  MTT assay reading, Average: 0.2884
  MTT assay reading, individual replicate: 0.212 and 0.331 and 0.284 and 0.282 and 0.478 and 0.2 and 0.232
[4]; H358, 1 μM
  % control: 36%
  MTT assay reading, Average: 0.3047
  MTT assay reading, individual replicate: 0.283 and 0.248 (2×) and 0.306 and 0.3 and 0.343 and 0.405
[5]; A549, 0.01 μM
  MTT assay reading, Average: 0.2983
  MTT assay reading, individual replicate: 0.286 and 0.219 and 0.272 and 0.298 and 0.36 and 0.344 and 0.309
[5]; A549, 0.1 μM
  MTT assay reading, Average: 0.6833
  MTT assay reading, individual replicate: 0.693 and 0.467 and 0.636 and 0.687 and 0.753 and 0.796 and 0.751
[5]; A549, 0.5 μM
  MTT assay reading, Average: 0.5794
  MTT assay reading, individual replicate: 0.542 and 0.837 and 0.514 and 0.534 and 0.588 and 0.579 and 0.462
[5]; A549, 1 μM
  MTT assay reading, Average: 0.6031
  MTT assay reading, individual replicate: 0.783 and 0.583 and 0.67 and 0.758 and 0.515 and 0.477 and 0.436
[6]; H322, 0.01 μM
  % control: 97%
  MTT assay reading, Average: 0.8434
  MTT assay reading, individual replicate: 0.729 and 0.806 and 0.748 and 0.791 and 0.898 and 1.011 and 0.921
[6]; H322, 0.1 μM
  % control: 55%
  MTT assay reading, Average: 0.4803
  MTT assay reading, individual replicate: 0.322 and 0.412 and 0.406 and 0.52 and 0.585 and 0.58 and 0.537
[6]; H322, 0.5 μM
  % control: 43%
  MTT assay reading, Average: 0.3787
  MTT assay reading, individual replicate: 0.32 and 0.314 and 0.388 and 0.393 and 0.466 and 0.443 and 0.327
[6]; H322, 1 μM
  % control: 40%
  MTT assay reading, Average: 0.3461
  MTT assay reading, individual replicate: 0.271 and 0.348 and 0.409 and 0.352 and 0.361 and 0.324 and 0.358
[7]
  inhibiting cell growth in NSCLC cells, ranking among the derivatives: most effective
